Laboratory results: patent US10632181B2, “Composition, containing RGD motif-containing peptide or fragment thereof, for treating burns and glaucoma, alleviating skin wrinkles, and promoting hair growth” (HUONS CO., LTD., priority 2014, dated 2020)
Positions of bridges follow the written chain, without caps; N, C: chain ends. No end group written: not given here.

Assays:
[1] = Burn treatment test: body weight and abnormal syndrome; type: in vivo, SD (Sprague-Dawley) rats; details: for BODY WEIGHTS: skin
Experimental: (§1) The experiment was carried out with 55 male SD (Sprague-Dawley) rats that were divided into […] groups: 5 rats for normal group (1 group, G1), 9-10 rats for negative control (1 group, G2), 30 rats for experimental group (3 groups, 10 rats in each group, G3, G4, G5), and 9-10 rats for positive control (1 group, G6). In the remaining groups except normal group, burned male SD rats was used for experiment. After SD rats were anesthesized, 2-degree burns, 2 cm in diameter, were induced on the SD rats using an aluminum electric soldering iron.
(§2) Test substance HU022 (SEQ ID NO:1) (G3, G4, G5), normal saline solution (G2) and Fiblast (G6) were applied to the skin of the burned male SD rats repeatedly once a day seven times a week for 7 days. Fiblast was applied to control group (G6) in 10 μg/dose/head, and the experimental group was divided into 3 groups and test substance was applied to each group in 3.3 μg/dose/head (G3), 10 μg/dose/head (G4), and 30 μg/dose/head (G5).
(§3) With the measurement results, parametric comparison determined significance via Student's t-test and One-Way ANOVA, and significance testing relative to negative control was conducted. Furthermore, with the histopathology test results of burns, Kruskal-Wallis' H-test was conducted, and when significance between groups was identified, comparison between groups was performed through Mann-Whitney U-test. The computation program for statistics was SPSS 10.1 K. P<0.05 was determined to be statistically significant.

[2] = test system: 2-degree burns of male SD rats; assay: Burn treatment test: burn wound area; type: in vivo, SD (Sprague-Dawley) rats
Experimental: as §1, §2
After burn was induced, imaging was performed before test substance was applied, and imaging was performed on 1st, 4th, 8th, 11th, and 15th days, and after imaging, test substance was applied and the applied site was covered with gauze and wrapped with tegaderm. Furthermore, images taken for measuring the burn wound area were analyzed using Image analyzer program.
as §3

skin = assay: Safety assessment of test product on skin; details: use for 4 weeks, dermatologist's physical examination
Experimental: Women aged 30-65 having wrinkles around eyes were tested. […] They had second and third visits at the interval of 2 weeks after the start of use, and at each visit, were required to respond to various types of assessment and investigation defined in the experiment.
Furthermore, safety assessment was performed, and for safety of clinical test product, in all subjects having used the test product at least once, abnormal responses found at the second week and fourth week after use and abnormal responses reported during the test period were all used as safety assessment data of the product.

[3] = test system: hair growth of C57BL/6 mouse; assay: Hair growth test: hair weight; type: in vivo
Experimental: This test was conducted to assess the influence on hair growth of C57BL/6 mouse when 4 types of test substances, HU024 (SEQ ID NO:2), HU025 (SEQ ID NO:3), HU026 (SEQ ID NO:4), and HU027 (SEQ ID NO:5), were applied to the skin for 14 days.
The group design was set to negative control (sterile water for injection G1), test substance HU024 (SEQ ID NO:2) 20 ug/head/day (G2), test substance HU024 (SEQ ID NO:2) 60 ug/head/day (G3), test substance HU025 (SEQ ID NO:3) 20 ug/head/day (G4), test substance HU025 (SEQ ID NO:3) 60 ug/head/day (G5), test substance HU026 (SEQ ID NO:4) 20 ug/head/day (G6), test substance HU026 (SEQ ID NO:4) 60 ug/head/day (G7), test substance HU027 (SEQ ID NO:5) 20 ug/head/day (G8), test substance HU027 (SEQ ID NO:5) 60 ug/head/day (G9) and positive control minoxyl 3% (G10) administered groups. Each group had 10 animals.
After the animal was put under anesthesia using zoletil (1 mL/kg, i.p), the back of the animal was primarily shaved using a depilator, and Veet depilatory was evenly applied on the back. After about 5 minutes, the applied site was cleaned up using gauze moistened with sterile water for injection. Only animal whose shaved back was scarlet in color was used for group separation. The test substance was applied to the same site daily once per day, 7 times per week for 14 days, and the test substance was evenly applied to the shaved site (on the back) by rubbing with a glass rod about 10 times.
The hair growing area (%) relative to the test substance-applied area was measured and determined, and Image analyzer program (Image Pro Plus ver. 6.3, Cybermetics, USA) was used to measure. It was measured on the 1st, 3rd, 7th, 10th and 14th days after test substance administration. Imaging was performed together with the measurements on the date when the hair area was measured. On the next day after the end of application, the animals were killed by CO2 gas, and hair on the hair growing area was removed by a depilator and hair weight was measured.
The measurement results were analyzed using SPSS (ver. 10.1K), Duncan t-test for weight changes was conducted through one-way analysis of variance, hair weight was compared between groups using Student's t-test, and hair growing area was compared between groups through nonparametric multiple comparison procedures Whitney-Mann methods. P<0.05 was determined to be statistically significant.

In the case of “HU022: polypeptide consisting of 452nd-509th amino acids of ADAM 15 (GenBank AAH14566.1), 58 amino acids; commercial product (EYEGENE Inc.)”, the “BODY WEIGHTS” value ([1]; 3.3 μg/head/day, Day 1) is reported as 261.24 ± 10.05 g, the “BODY WEIGHTS” value ([1]; 3.3 μg/head/day, Day 8) is reported as 269.41 ± 17.57 g and the “BODY WEIGHTS” value ([1]; 3.3 μg/head/day, Day 15) is reported as 300.31 ± 20.36 g. The “BODY WEIGHTS” value ([1]; 10 μg/head/day, Day 1) was 260.59 ± 9.27 g, the “BODY WEIGHTS” value ([1]; 10 μg/head/day, Day 8) was 267.86 ± 5.20 g and the “BODY WEIGHTS” value ([1]; 10 μg/head/day, Day 15) was 296.55 ± 8.86 g. The “BODY WEIGHTS” value ([1]; 30 μg/head/day, Day 1) was 257.94 ± 9.23 g, the “BODY WEIGHTS” value ([1]; 30 μg/head/day, Day 8) was 259.49 ± 15.34 g and the “BODY WEIGHTS” value ([1]; 30 μg/head/day, Day 15) was 284.87 ± 17.06 g. The “abnormal syndrome after application” value ([1]; burned male SD rats, skin application) was “any abnormal syndrome was not observed”, the “BURN WOUNDED AREA” value ([2]; 3.3 μg/head/day, Day 1) was 4.8 ± 0.8 cm^2 and the “BURN WOUNDED AREA (%)” value ([2]; 3.3 μg/head/day, Day 1) was 100.0 ± 16.3%. The “BURN WOUNDED AREA” value ([2]; 3.3 μg/head/day, Day 4) was 3.8 ± 0.6 cm^2, the “BURN WOUNDED AREA (%)” value ([2]; 3.3 μg/head/day, Day 4) was 79.2 ± 13.571% and the “BURN WOUNDED AREA” value ([2]; 3.3 μg/head/day, Day 8) was 2.9 ± 0.6 cm^2. For the same substance, the “BURN WOUNDED AREA (%)” value ([2]; 3.3 μg/head/day, Day 8) was 60.8 ± 11.9%, the “BURN WOUNDED AREA” value ([2]; 3.3 μg/head/day, Day 11) was 2.5 ± 0.7 cm^2 and the “BURN WOUNDED AREA (%)” value ([2]; 3.3 μg/head/day, Day 11) was 51.6 ± 15.7%. For the same substance, the “BURN WOUNDED AREA” value ([2]; 3.3 μg/head/day, Day 15) was 1.9 ± 0.6 cm^2, the “BURN WOUNDED AREA (%)” value ([2]; 3.3 μg/head/day, Day 15) was 40.1 ± 12.8% and the “BURN WOUNDED AREA” value ([2]; 10 μg/head/day, Day 1) was 4.3 ± 0.9 cm^2. For the same substance, the “BURN WOUNDED AREA (%)” value ([2]; 10 μg/head/day, Day 1) was 100.0 ± 23.0%, the “BURN WOUNDED AREA” value ([2]; 10 μg/head/day, Day 4) was 3.6 ± 0.8 cm^2 and the “BURN WOUNDED AREA (%)” value ([2]; 10 μg/head/day, Day 4) was 82.7 ± 18.0%. The “BURN WOUNDED AREA” value ([2]; 10 μg/head/day, Day 8) was 2.9 ± 0.5 cm^2, the “BURN WOUNDED AREA (%)” value ([2]; 10 μg/head/day, Day 8) was 68.2 ± 12.3% and the “BURN WOUNDED AREA” value ([2]; 10 μg/head/day, Day 11) was 2.4 ± 0.3 cm^2. For the same substance, the “BURN WOUNDED AREA (%)” value ([2]; 10 μg/head/day, Day 11) was 56.8 ± 7.7%, the “BURN WOUNDED AREA” value ([2]; 10 μg/head/day, Day 15) was 2.2 ± 0.4 cm^2 and the “BURN WOUNDED AREA (%)” value ([2]; 10 μg/head/day, Day 15) was 51.9 ± 8.9%. For the same substance, the “BURN WOUNDED AREA” value ([2]; 30 μg/head/day, Day 1) was 5.2 ± 0.4 cm^2, the “BURN WOUNDED AREA (%)” value ([2]; 30 μg/head/day, Day 1) was 100.0 ± 7.0% and the “BURN WOUNDED AREA” value ([2]; 30 μg/head/day, Day 4) was 3.5 ± 0.5 cm^2. For the same substance, the “BURN WOUNDED AREA (%)” value ([2]; 30 μg/head/day, Day 4) was 67.6 ± 9.3 %, the “BURN WOUNDED AREA” value ([2]; 30 μg/head/day, Day 8) was 2.9 ± 0.3 cm^2 and the “BURN WOUNDED AREA (%)” value ([2]; 30 μg/head/day, Day 8) was 55.9 ± 5.1%. For the same substance, the “BURN WOUNDED AREA” value ([2]; 30 μg/head/day, Day 11) was 2.3 ± 0.1 cm^2, the “BURN WOUNDED AREA (%)” value ([2]; 30 μg/head/day, Day 11) was 43.9 ± 2.6% and the “BURN WOUNDED AREA” value ([2]; 30 μg/head/day, Day 15) was 1.8 ± 0.4 cm^2. The “BURN WOUNDED AREA (%)” value ([2]; 30 μg/head/day, Day 15) was 35.6 ± 8.4% and the “abnormal response / skin irritation” value (skin) was “safe product not causing irritation to the skin”.
With “HU024 (RPTRGDCDLPEFCPG; disulfide 7-13; listed as Homo sapiens)” the “HAIR WEIGHTS” value ([3]; 20 ug/head/day for 14 days) was 0.016 ± 0.003 g and the “HAIR WEIGHTS” value ([3]; 60 ug/head/day for 14 days) was 0.023 ± 0.008 g.
